Laboratory results published in ChEMBL document CHEMBL3351833, “Synthesis and Biological Evaluation of Pyrazolo[1,5-a]pyrimidine Compounds as Potent and Selective Pim-1 Inhibitors” (ACS Med Chem Lett, 2015).

Columns and labels:
[1] = target: Serine/threonine-protein kinase pim-2 (Homo sapiens, UniProt Q9P1W9); test: Inhibition of Pim2 (unknown origin) using luciferase-luciferin based ATP detection reagent by Kinase-Glo assay
[2] = target: T1, Receptor-type tyrosine-protein kinase FLT3 (Homo sapiens, UniProt P36888); test: Inhibition of human Flt3 (unknown origin)
T1 sequence (P36888 whole entry): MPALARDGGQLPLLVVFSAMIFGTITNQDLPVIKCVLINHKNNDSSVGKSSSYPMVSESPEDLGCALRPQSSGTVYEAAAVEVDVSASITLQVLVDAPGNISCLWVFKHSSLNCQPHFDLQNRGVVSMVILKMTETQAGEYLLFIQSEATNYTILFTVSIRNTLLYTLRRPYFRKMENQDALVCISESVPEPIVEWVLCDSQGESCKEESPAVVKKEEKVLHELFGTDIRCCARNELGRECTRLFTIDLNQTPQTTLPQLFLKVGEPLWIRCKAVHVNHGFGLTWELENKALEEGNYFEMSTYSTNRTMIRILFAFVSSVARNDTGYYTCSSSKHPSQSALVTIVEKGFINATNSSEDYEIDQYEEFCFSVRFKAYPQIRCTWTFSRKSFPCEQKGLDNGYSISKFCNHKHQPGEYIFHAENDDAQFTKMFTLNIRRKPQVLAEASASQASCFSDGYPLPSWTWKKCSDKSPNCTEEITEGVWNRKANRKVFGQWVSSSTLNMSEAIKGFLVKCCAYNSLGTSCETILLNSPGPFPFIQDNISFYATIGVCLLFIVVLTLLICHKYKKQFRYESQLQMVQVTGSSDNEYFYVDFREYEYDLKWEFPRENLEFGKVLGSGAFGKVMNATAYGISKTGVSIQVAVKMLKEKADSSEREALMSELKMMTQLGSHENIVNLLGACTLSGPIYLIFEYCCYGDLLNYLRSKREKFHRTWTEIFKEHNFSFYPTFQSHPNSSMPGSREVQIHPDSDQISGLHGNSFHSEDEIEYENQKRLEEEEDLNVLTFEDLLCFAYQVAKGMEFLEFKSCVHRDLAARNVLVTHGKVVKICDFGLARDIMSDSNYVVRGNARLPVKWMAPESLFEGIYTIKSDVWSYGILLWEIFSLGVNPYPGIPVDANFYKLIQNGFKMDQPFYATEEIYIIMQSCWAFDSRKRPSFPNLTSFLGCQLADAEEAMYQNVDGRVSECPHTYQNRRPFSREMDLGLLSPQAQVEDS

[3] = target: Voltage-gated inwardly rectifying potassium channel KCNH2 (Homo sapiens, UniProt Q12809); test: Inhibition of human ERG expressed in CHO cells by automated patch clamp method; type: cell-based
Chain of Voltage-gated inwardly rectifying potassium channel KCNH2 (Q12809 whole entry): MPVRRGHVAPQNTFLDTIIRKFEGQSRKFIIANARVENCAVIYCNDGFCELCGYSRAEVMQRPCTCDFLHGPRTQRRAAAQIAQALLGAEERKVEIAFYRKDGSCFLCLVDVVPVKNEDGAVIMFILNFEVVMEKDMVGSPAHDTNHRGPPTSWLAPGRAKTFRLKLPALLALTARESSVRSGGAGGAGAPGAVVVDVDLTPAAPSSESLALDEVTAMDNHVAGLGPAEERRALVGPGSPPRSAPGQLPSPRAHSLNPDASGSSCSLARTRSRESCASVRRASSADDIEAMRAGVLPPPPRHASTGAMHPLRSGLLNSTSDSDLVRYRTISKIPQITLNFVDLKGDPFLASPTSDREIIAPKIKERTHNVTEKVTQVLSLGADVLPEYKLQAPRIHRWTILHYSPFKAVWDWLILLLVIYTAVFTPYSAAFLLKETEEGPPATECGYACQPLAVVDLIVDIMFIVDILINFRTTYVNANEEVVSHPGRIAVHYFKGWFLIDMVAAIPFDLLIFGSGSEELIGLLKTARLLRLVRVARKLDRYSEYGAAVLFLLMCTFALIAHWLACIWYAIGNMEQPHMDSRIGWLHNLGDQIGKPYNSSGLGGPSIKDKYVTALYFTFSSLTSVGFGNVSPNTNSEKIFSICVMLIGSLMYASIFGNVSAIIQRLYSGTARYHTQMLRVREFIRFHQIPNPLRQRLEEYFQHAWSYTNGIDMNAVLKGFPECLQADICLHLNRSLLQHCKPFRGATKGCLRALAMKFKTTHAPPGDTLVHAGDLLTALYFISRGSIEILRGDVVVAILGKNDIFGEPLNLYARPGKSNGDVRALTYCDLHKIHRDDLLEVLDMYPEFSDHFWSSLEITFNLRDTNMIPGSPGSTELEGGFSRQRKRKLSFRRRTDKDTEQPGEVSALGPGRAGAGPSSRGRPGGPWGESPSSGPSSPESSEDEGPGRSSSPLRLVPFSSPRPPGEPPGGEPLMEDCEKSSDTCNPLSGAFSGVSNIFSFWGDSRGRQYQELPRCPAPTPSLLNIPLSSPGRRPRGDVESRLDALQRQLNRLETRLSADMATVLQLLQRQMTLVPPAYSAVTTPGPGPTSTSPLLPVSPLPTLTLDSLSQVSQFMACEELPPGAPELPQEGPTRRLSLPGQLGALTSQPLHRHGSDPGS

[4] = target: Serine/threonine-protein kinase pim-1 (Homo sapiens, UniProt P11309); test: Inhibition of Pim1 (unknown origin) using luciferase-luciferin based ATP detection reagent by Kinase-Glo assay
Chain of Serine/threonine-protein kinase pim-1 (P11309 whole entry): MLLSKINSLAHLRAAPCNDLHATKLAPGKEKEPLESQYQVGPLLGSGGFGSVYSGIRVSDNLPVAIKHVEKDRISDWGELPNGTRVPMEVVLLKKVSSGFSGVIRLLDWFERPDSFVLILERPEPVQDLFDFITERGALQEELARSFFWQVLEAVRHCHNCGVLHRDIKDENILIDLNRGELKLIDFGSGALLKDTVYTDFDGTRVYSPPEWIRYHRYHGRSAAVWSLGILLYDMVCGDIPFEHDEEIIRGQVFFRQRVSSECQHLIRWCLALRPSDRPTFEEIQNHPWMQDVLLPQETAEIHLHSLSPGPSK

Chain of Serine/threonine-protein kinase pim-2 (Q9P1W9 whole entry): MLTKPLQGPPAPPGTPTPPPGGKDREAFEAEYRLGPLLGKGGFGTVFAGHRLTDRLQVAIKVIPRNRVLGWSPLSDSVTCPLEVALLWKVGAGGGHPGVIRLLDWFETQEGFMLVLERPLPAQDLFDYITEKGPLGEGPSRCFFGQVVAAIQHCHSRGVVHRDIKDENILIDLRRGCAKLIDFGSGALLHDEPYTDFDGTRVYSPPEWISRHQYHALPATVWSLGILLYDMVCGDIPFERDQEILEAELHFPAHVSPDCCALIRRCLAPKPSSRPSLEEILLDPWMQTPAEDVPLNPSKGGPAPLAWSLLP

O[C@H]1CC[C@H](Nc2ccn3ncc(-c4cccc(C(F)(F)F)c4)c3n2)CC1
IC50 ([1]; read-out: IC50): 282 nM
IC50 [2]: 53 nM

CC(C)(O)[C@H]1CC[C@H](Nc2ccn3ncc(-c4cccc(C(F)(F)F)c4)c3n2)CC1
IC50 [3]: > 30000 nM
IC50 ([1]; read-out: IC50): 525 nM
IC50 [2]: 271 nM

N[C@H]1CC[C@H](Nc2ccn3ncc(-c4cccc(OC(F)(F)F)c4)c3n2)CC1
IC50 ([1]; read-out: IC50): 100 nM

O=S1(=O)CCC(CNc2ccn3ncc(-c4cccc(OC(F)(F)F)c4)c3n2)CC1
IC50 ([1]; read-out: IC50): 8160 nM

O=S1(=O)CCC(CNc2ccn3ncc(-c4cccc(C(F)(F)F)c4)c3n2)CC1
IC50 ([1]; read-out: IC50): 6020 nM

N[C@H]1CC[C@H](Nc2ccn3ncc(-c4cccc(Cl)c4)c3n2)CC1
IC50 ([1]; read-out: IC50): 732 nM

N[C@H]1CCCN(c2ccn3ncc(-c4cccc(OC(F)(F)F)c4)c3n2)C1
IC50 ([1]; read-out: IC50): 987 nM

FC(F)(F)c1cccc(-c2cnn3ccc(NCC4CCOCC4)nc23)c1
IC50 ([4]; read-out: IC50): 149 nM
IC50 ([1]; read-out: IC50): 1970 nM

C[C@]1(O)CC[C@H](Nc2ccn3ncc(-c4cccc(OC(F)(F)F)c4)c3n2)CC1
IC50 ([1]; read-out: IC50): 2040 nM

N[C@H]1CCCN(c2ccn3ncc(-c4cccc(Cl)c4)c3n2)C1
IC50 ([1]; read-out: IC50): 2000 nM

C[C@]1(O)CC[C@H](Nc2ccn3ncc(-c4cccc(C(F)(F)F)c4)c3n2)CC1
IC50 ([1]; read-out: IC50): 639 nM

O=S1(=O)CCC(Nc2ccn3ncc(-c4cccc(C(F)(F)F)c4)c3n2)CC1
IC50 [4]: Not Active
IC50 [1]: Not Active
